Strand notation (5' to 3'): a small letter for the sugar, then the base; units joined by * are phosphorothioate-linked, units joined directly phosphodiester-linked; [ ] holds rarer units or linkages, { } end groups; capitals alone tell only the bases. e = 2'-O-(2-methoxyethyl) (MOE); [5mC] = 5-methylcytosine; d = 2'-deoxy (DNA)

For data set [1], the system named is JNK2 mRNA. In words: Northern assay, JNK2 mRNA expression in A549 cells. It is filed as cell-based, human. The settings on record: JNK2 mRNA, A549 cells, 400 nM oligonucleotide, relative to control. The protocol: In order to evaluate the activity of potential JNK-modulating oligonucleotides, human lung carcinoma cell line A549 (American Type Culture Collection, 10801 University Boulevard, Manassas, Va. 20110-2209, No. ATCC CCL-185) cells or other cell lines as indicated in the Examples, were grown and treated with oligonucleotides or control solutions as detailed below. After harvesting, cellular extracts were prepared and examined for specific JNK mRNA levels or JNK protein levels (i.e., Northern or Western assays, respectively). In all cases, “% expression” refers to the amount of JNK-specific signal in an oligonucleotide-treated cell relative to an untreated cell (or a cell treated with a control solution that lacks oligonucleotide), and “% inhibition” is calculated as
100%−%Expression=%Inhibition.
The mRNA expression of each JNK protein was determined by using a nucleic acid probe specifically hybridizable thereto. Nucleic acid probes specific for JNK1, JNK2 and JNK3 are described in Examples 3, 4 and 5, respectively. The probes were radiolabelled by means well known in the art (see, e.g., Short Protocols in Molecular Biology, 2nd Ed., Ausubel et al., Eds., John Wiley & Sons, New York, 1992, pages 3-11 to 2-3-44 and 4-17 to 4-18; Ruth, Chapter 6 In: Methods in Molecular Biology, Vol. 26: Protocols for Oligonucleotide Conjugates, Agrawal, ed., Humana Press Inc., Totowa, N.J., 1994, pages 167-185; and Chapter 10 In: Molecular Cloning: A Laboratory Manual, 2nd Ed., Sambrook et al., Eds., pages 10.1-10.70). The blots were stripped and reprobed with a ^32P-labeled glyceraldehyde 3-phosphate dehydrogenase (G3PDH) probe (Clontech Laboratories, Inc., Palo Alto, Calif.) in order to confirm equal loading of RNA and to allow the levels of JNK transcripts to be normalized with regard to the G3PDH signals.
A549 cells were grown in T-75 flasks until 80-90% confluent. At this time, the cells were washed twice with 10 mL of media (DMEM), followed by the addition of 5 mL of DMEM containing 20 μg/mL of LIPOFECTIN™ (i.e., 1:1 (w/w) DOTMA/DOPE, Life Technologies, Gaithersburg, Md.; DOTMA=N-[1-(2,3-dioleyoxy)propyl]-N,N,N-trimethylammonium chloride; DOPE=dioleoyl phosphatidylethanolamine). The oligonucleotides were added from a 10 μM stock solution to a final concentration of 400 nM, and the two solutions were mixed by swirling the flasks. As a control, cells were treated with LIPOFECTIN™ without oligonucleotide under the same conditions and for the same times as the oligonucleotide-treated samples. After 4 hours at 37° C., the medium was replaced with fresh DMEM containing 10% serum. The cells were allowed to recover for 18 hours. Total cellular RNA was then extracted in guanidinium, subject to gel electrophoresis and transferred to a filter according to techniques known in the art (see, e.g., Chapter 7 In: Molecular Cloning: A Laboratory Manual, 2nd Ed., Sambrook et al., Eds., pages 7.1-7.87, and Short Protocols in Molecular Biology, 2nd Ed., Ausubel et al., Eds., John Wiley & Sons, New York, 1992, pages 2-24 to 2-30 and 4-14 to 4-29). Filters were typically hybridized overnight to a probe specific for the particular JNK gene of interest in hybridization buffer (25 mM KPO4, pH 7.4; 5×SSC; 5× Denhardt's solution, 100 μg/ml Salmon sperm DNA and 50% formamide) (Alahari et al., Nucl. Acids Res., 1993, 21, 4079). This was followed by two washes with 1×SSC, 0.1% SDS and two washes with 0.25×SSC, 0.1% SDS. Hybridizing bands were visualized by exposure to X-OMAT AR film and quantitated using a PHOSPHORIMAGER™ essentially according to the manufacturer's instructions (Molecular Dynamics, Sunnyvale, Calif.).
In initial screenings of a set of oligonucleotides derived from the JNK2 sequence (Table 9) for biological activity, a cDNA clone of JNK2 (Kallunki et al., Genes & Development, 1994, 8, 2996) was radiolabeled and used as a JNK2-specific probe in Northern blots. […]

Data set [2] relates to JNK1 mRNA. As to the kind of experiment: Northern assay, JNK1 mRNA expression in A549 cells. It is filed as cell-based, human. The settings on record: for RNA % Inhibition: JNK1 mRNA; for dose- and sequence-dependent response on JNK1 mRNA levels: A549 cells, 50, 100, 200 and 400 nM.
In data set [3] the test system is rat JNK2 mRNA. In words: Northern assay, rat JNK2 (p54a) mRNA in A10 cells. It is filed as cell-based. The settings on record: for inhibition of rat JNK2 mRNA levels: Table 22; for capacity to modulate both JNK1 and JNK2 (Pan JNK): rat JNK1 and JNK2 mRNA. The protocol:
(§1) In order to study the role of JNK proteins in animal models, oligonucleotides targeted to the genes encoding JNK1, JNK2 and JNK3 of Rattus norvegicus were prepared. These oligonucleotides are 2′-methoxyethoxy, phosphodiester/2′-hydroxyl, phosphorothioate/2′-methoxyethoxy, phosphodiester “gapmers” in which every cytosine residue is 5-methylcytosine (msc). These antisense compounds were synthesized according to the methods of the disclosure. Certain of these oligonucleotides are additionally specifically hybridizable to JNK genes from other species as indicated herein. The oligonucleotides described in this Example were tested for their ability to modulate rat JNK mRNA levels essentially according to the methods described in the preceding Examples, with the exceptions that the cell line used was rat A10 aortic smooth muscle cells (ATCC No. ATCC CRL-1476) and the probes used were specific for rat JNK1, JNK2 or JNK3 (see infra). A10 cells were grown and treated with oligonucleotides essentially as described by (Cioffi et al. Mol. Pharmacol., 1997, 51, 383).
(§2) These antisense compounds were tested for their ability to modulate levels of p54? (JNK1) and p54a (JNK2) mRNA in A10 cells via Northern assays. Due to the high degree of sequence identity between the human and rat genes, radiolabeled human JNK1 (Example 3) and JNK2 (Example 4) cDNAs functioned as specific probes for the rat homologs.
These antisense compounds were tested for their ability to modulate levels of p54a (JNK2) mRNA in A10 cells using the radiolabeled human JNK2 cDNA as a probe as described supra. Oligonucleotides showing levels of inhibition from≧about 60% to about 100% of rat JNK2 mRNA levels include ISIS Nos. 18254, 18255, 18257, 18258, 18259, 18260 and 18265 (SEQ ID NOS:125, 126, 128, 129, 130, 131 and 136, respectively). These oligonucleotides are preferred embodiments of the invention for modulating rat JNK2 expression. […] These oligonucleotides are thus more preferred embodiments of the invention for modulating rat JNK2 expression. ISIS 18259 (SEQ ID NO:130) was chosen for use in further studies (infra).
(§3) A dose response study was conducted using oligonucleotides targeted to rat JNK1 (ISIS 21859; SEQ ID NO:113) and JNK2 (ISIS 18259; SEQ ID NO:130) and Northern assays.

Data set [4] concerns rat JNK1 mRNA. In words: Northern assay, rat JNK1 (p54?) mRNA in A10 cells. The class given is cell-based. The following applies: for inhibition of rat JNK1 mRNA levels: Table 20. The protocol: as §1, §2, §3
Setting [5] is: t = 48 h, 300 nM for initial 20 hours then 200 nM for 4 hours.

As for “12567 (antisense dG*dG*dT*dC*dC*dC*dG*dT*dC*dG*dA*dG*dG*dC*dA*dT*dC*dA*dA*dG) [compound 12567]”, the “% EXPRESSION” value in data set [1] was 18%. On to “15348 (antisense CTCTCTGTAGGCCCGCTTGG; wingmer, 5' 2'-MOE, phosphorothioate, chemistry not fully specified) [compound 15348]”, for which the “RNA % Inhibition” value in data set [2] (setting [5]) and in data set [2] (t = 72 h) was > 70% throughout.

Consider “15350 (antisense CTCTCTGTAGGCCCGCTTGG; wingmer, 3' P=O 2'-MOE, chemistry not fully specified) [compound 15350]”, for which the “RNA % Inhibition” value in data set [2] (setting [5]) worked out at 50.8%. “15351 (antisense CTCTCTGTAGGCCCGCTTGG; wingmer, 5' P=O 2'-MOE, chemistry not fully specified) [compound 15351]”: the “RNA % Inhibition” value in data set [2] (setting [5]) is on record as > 70%. As for “18257 (antisense eGeAeTeAeT*d[5mC]*dA*dA*d[5mC]*dA*dT*dT*d[5mC]*dT*d[5mC]*e[5mC]eTeTeGeT) [compound 18257]”, the “inhibition of rat JNK2 mRNA levels” value in data set [3] (A10 cells) is ≥ 60%. With “18259 (antisense eGe[5mC]eTe[5mC]eA*dG*dT*dG*dG*dA*d[5mC]*dA*dT*dG*dG*eAeTeGeAeG) [compound 18259]”, in data set [3] (A10 cells, Northern assays), the “dose response, levels of mRNA encoding rat JNK2” value was “specifically modulate”. As usually defined, the % Inhibition is how much of the control response was suppressed. With “18260 (antisense eAeTe[5mC]eTeG*d[5mC]*dG*dA*dG*dG*dT*dT*dT*d[5mC]*dA*eTe[5mC]eGeGe[5mC]) [compound 18260]”, the “inhibition of rat JNK2 mRNA levels” value in data set [3] (A10 cells) is listed as ≥ 60%. The “% Inhibition” value in data set [3] (rat JNK2 (p54a) mRNA in A10 cells, control = LIPOFECTIN only = 0%) turned out to be 59%. Besides, the “% EXPRESSION” value in data set [3] (rat JNK2 (p54a) mRNA in A10 cells, control = LIPOFECTIN only = 100%) was 41%.

With “18265 (antisense eTeGeTe[5mC]eA*dG*d[5mC]*dT*d[5mC]*dT*dA*d[5mC]*dA*dT*dT*eAeGeGe[5mC]eA) [compound 18265]”, the “inhibition of rat JNK2 mRNA levels” value in data set [3] (A10 cells) is on record as ≥ 60%. On to “21858 (antisense CCTGCTCGCGGCTCCGCGTT; 2'-O-methyl wings, phosphorothioate gap, chemistry not fully specified) [compound 21858]”, for which the “inhibition of rat JNK1 mRNA levels” value in data set [4] is reported as “at least 90%”. Turning to “21859 (antisense CTCATGATGGCAAGCAATTA; 2'-O-methyl wings, phosphorothioate gap, chemistry not fully specified) [compound 21859]”, the “dose response, levels of mRNA encoding rat JNK1” value in data set [4] (Northern assays) was “specifically modulate levels of mRNA encoding JNK1”. Besides, in data set [4], the “inhibition of rat JNK1 mRNA levels” value is listed as “at least 90%”. Take “21860 (antisense TGTTGTCACGTTTACTTCTG; 2'-O-methyl wings, phosphorothioate gap, chemistry not fully specified) [compound 21860]”: in data set [4], the “inhibition of rat JNK1 mRNA levels” value is “at least 90%”.

As to “21861 (antisense CGGTAGGCTCGCTTAGCATG; 2'-O-methyl wings, phosphorothioate gap, chemistry not fully specified) [compound 21861]”, in data set [4], the “inhibition of rat JNK1 mRNA levels” value is recorded as “at least 90%”. Moreover, the “capacity to modulate both JNK1 and JNK2 (Pan JNK)” value in data set [3] (A10 cells) was “demonstrated a capacity to modulate both JNK1 and JNK2”. With “21862 (antisense CTAGGGATTTCTGTGGTGTG; 2'-O-methyl wings, phosphorothioate gap, chemistry not fully specified) [compound 21862]”, in data set [4], the “inhibition of rat JNK1 mRNA levels” value is given as “at least 90%”. In the case of “21864 (antisense TCGTTCCTGCAGTCCTTGCC; 2'-O-methyl wings, phosphorothioate gap, chemistry not fully specified) [compound 21864]”, in data set [4], the “inhibition of rat JNK1 mRNA levels” value was “at least 90%”. Consider “21865 (antisense CCATTTCTCCCATAATGCAC; 2'-O-methyl wings, phosphorothioate gap, chemistry not fully specified) [compound 21865]”, for which the “inhibition of rat JNK1 mRNA levels” value in data set [4] was “at least 90%”. For “21866 (antisense TGAATTCAGGACAAGGTGTT; 2'-O-methyl wings, phosphorothioate gap, chemistry not fully specified) [compound 21866]”, the “inhibition of rat JNK1 mRNA levels” value in data set [4] is given as “at least 90%”. As to “21867 (antisense AGCTTCGTCTACGGAGATCC; 2'-O-methyl wings, phosphorothioate gap, chemistry not fully specified) [compound 21867]”, the “inhibition of rat JNK1 mRNA levels” value in data set [4] was “at least 90%”. The “capacity to modulate both JNK1 and JNK2 (Pan JNK)” value in data set [3] (A10 cells) is “demonstrated a capacity to modulate both JNK1 and JNK2”. Take “C^sC^sA^sA^sG^sC^sG^sG^sG^sC^sC^sT^sA^sC^sA^sG^sA^sG^sA^sG (sense dC*dC*dA*dA*dG*dC*dG*dG*dG*dC*dC*dT*dA*dC*dA*dG*dA*dG*dA*dG) [ISIS 14320, reference compound]”: the “dose- and sequence-dependent response on JNK1 mRNA levels” value in data set [2] is “neither of the control oligonucleotides effect any consistent response”. With “C^sT^sT^sT^sC^sC^sG^sT^sT^sG^sG^sA^sC^sC^sC^sC^sT^sG^sG^sG (dC*dT*dT*dT*dC*dC*dG*dT*dT*dG*dG*dA*dC*dC*dC*dC*dT*dG*dG*dG; further chemistry not given here) [ISIS 14321, reference compound]”, in data set [2], the “dose- and sequence-dependent response on JNK1 mRNA levels” value was “neither of the control oligonucleotides effect any consistent response”.
